# Experimental data published in US12636284B2, “Compositions for use in the prevention and/or treatment of intellectual disability and neurodegenerative diseases in a subject with down syndrome” (UNIVERSITA' DEGLI STUDI DI ROMA “LA SAPIENZA”, priority 2021, dated 2026).
# Legend:
# Type in all cases: in vivo, mouse
# [1] = Body weight, body surface area and body mass index during treatment; conditions: Ts2Cje mice; sitagliptin 5 mM intranasal, 21 days
# Method: (§1) Finally, animals were sacrificed using cervical dislocation.
# (§2) Furthermore, mice were measured at the beginning and at the end of the treatment to evaluate the length in centimeters (cm). For calculating the body mass surface, the DuBois equation was used: body surface area (m^2)=0.007184×weight ([…])×height ([…]). The body mass index was calculated as the ratio between weight and BSA (gr/m^2). At the end of the treatment, the glucose tolerance test (GTT) was carried out on the four experimental groups. After a fasting period of 6 hours, the animals' basal blood glucose was assessed with a small blood sample from the tail (T0). Subsequently, the same animals were treated with a glucose solution (10%, intraperitoneal injection) and blood glucose was measured with a glucometer (lineD ORO, Bioseven) after 30-60-90-120 minutes.
# [2] = Glucose tolerance test (GTT) at end of treatment; conditions: Ts2Cje mice; sitagliptin 5 mM intranasal, 21 days; 6 h fasting, i.p. glucose 10%
# Method: as §1, §2
# [3] = system: GABAergic transmission in Ts2Cje mice; experiment: Patch-clamp electrophysiology, CA1 neurons of hippocampal sections, Ts2Cje mice; conditions: Ts2Cje mice (Ts+S) vs vehicle-treated Ts2Cje, after 21 days intranasal treatment
# Source text: The brain sections containing the hippocampus were obtained from mice belonging to the four experimental groups (Eu Veh, Eu SITA, Ts2 Veh and Ts2 SITA) at 9 months of age after being euthanized by an overdose of isofluorane. Brains were quickly removed and placed in an ice-cold cutting solution containing the following (in mM): 124 NaCl, 3.2 KCl, 1 NaH2PO4, 2 MgCl2, 1 CaCl2), 26 NaHCO3, 10 glucose, 2 Na-pyruvate and 0.6 ascorbic acid, pH 7.4, 95% O2/5% CO2. The brain sections containing the hippocampus ([…]) were cut using a vibratome (VT1000S; Leica Microsystems) and immediately transferred to an incubation chamber filled with ACSF containing the following (in mM): 124 NaCl, 3.2 KCl, 1 NaH2PO4, 1 MgCl2, 2 CaCl2, 26 NaHCO3 and 10 glucose, pH 7.4, 95% O2/5% CO2. Brain sections were allowed to recover at 32° C. for 1 hour before being equilibrated to room temperature. For electrophysiological recordings, brain sections were transferred to a recording chamber constantly perfused with heated ACSF (32° C.) and bubbled with 95% O2/5% CO2. Subsequently, the slices were used for electrophysiological recordings. All electrophysiological recordings were performed using the patch-clamp technique in the whole-cell configuration. […] Membrane capacity and resistance were assessed in the same neurons. […]
# [4] = system: MAPK44/42 and Akt pathway; experiment: Western blot of Akt and MAPK44/42 activation in hippocampus
# Method: For the duration of the treatment, the mice were weighed weekly in order to assess any weight changes. After 21 days of treatment, the animals underwent a behavioral test to assess their memory and learning abilities. After the behavioral test, metabolic parameters such as blood glucose (both fasting and under the glycemic curve), body surface area (BSA) and body mass index (BMI) were assessed. Finally, animals were sacrificed using cervical dislocation. The brain and peripheral areas were isolated and collected in liquid nitrogen and subsequently stored at −80° C. until they were used for biochemical analyzes.
# Total protein extracts were prepared from the frontal cortex for human autopsy samples and from the hippocampus for mouse samples, using RIPA solution (pH 7.4) containing TrisHCl (50 mM, pH 7.4), NaCl (150 mM), 1% NP-40, 0.25% sodium deoxycholate, ethylenediamine tetracetic acid (EDTA) (1 mM), and 0.1% sodium dodecyl sulfate (SDS). […] For the rest of the experiments, protein extracts were supplemented with cocktails of protease and phosphatase inhibitors (Sigma Aldrich, St Louis, MO, USA). Brain tissues were homogenized in the solution described above by sonication, and centrifuged at 14,000 rpm for 30 min at 4° C. The supernatant was used to determine total protein concentration by means of the bicinchoninic acid assay (BCA, Pierce, Rockford, IL). […]
# [5] = system: oxidative stress levels (3-NT, 4-HNE); experiment: Slot blot of oxidative stress markers 3-NT and 4-HNE in hippocampus
# Method: The samples (250 μl per well) were loaded into the wells of the slot-blot apparatus and transferred to a nitrocellulose membrane. The membrane was blocked for 2 h with a 3% solution of bovine serum albumin in T-TBS, and incubated with a primary anti-HNE polyclonal antibody (1:3000; HNE, NOVUS, #NB100-63093) or anti-3-NT (1:1000; Sigma Aldrich, #SAB52000009), for 2 hours at room temperature. The membrane was washed with T-TBS and incubated with alkaline phosphatase conjugated anti-rabbit or anti-mouse secondary antibody (1:5000, Sigma Aldrich) for 1 hour at room temperature. […] Finally, the results obtained were analyzed using the ImageLab program (Bio-rad, Hercules, CA, USA).
compound,measurement,setting,value
"N[C@@H](CC(=O)N1CCn2c(nnc2C(F)(F)F)C1)Cc1cc(F)c(F)cc1F [sitagliptin, (R)-4-oxo-4-[3-(trifluoromethyl)-5,6-dihydro[1,2,4]triazole[4,3-a]pyrazin-7(8H)-yl]-1-(2,4,5-trifluorophenyl)butan-2-amine]","phenotypic or morphometric changes (weight, BSA, BMI)",[1],no phenotypic or morphometric changes
same,changes in glucose metabolism indices (GTT),[2],no phenotypic or morphometric changes or changes in glucose metabolism indices
same,"spontaneous release rate of the neurotransmitter, CA1 hippocampal neurons",[3],completely reverts the increase in the spontaneous release rate of the neurotransmitter
same,"activation of the cerebral insulin signal, MAPK44/42",[4]; Western blot p(Thr202/Tyr204)-MAPK44/42,restoration of the activation
same,"activation of the cerebral insulin signal, Akt",[4]; Western blot p(ser473)-Akt,restoration of the activation
same,"oxidative stress levels (3-NT, 4-HNE)",[5],reduction
